Columns and labels:
CDK1/Cyclin B1 = CDK1/Cyclin B1 (Homo sapiens (Human), UniProt P06493); assay: CDK1/Cyclin B1 ADP-Glo Kinase Assay; format: biochemical; settings: 80 uM ATP
Method in brief: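 Luminescent ADP-Glo detection of ADP produced over 90 min at room temperature. Enzyme complex 4.917 nM, pre-exposed 30 min to inhibitor; ATP 80 µM (near Km 78.6 µM), substrate 0.75 µM, HEPES pH 7.5, 2% DMSO. Fractional velocity fitted to 4-parameter IC50 equation.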

[1] = target: CDK2/Cyclin E1 full length (Homo sapiens (Human), UniProt P24941); assay: CDK2/Cyclin E1 Full Length ADP-Glo Kinase Assay; format: biochemical; settings: 20 uM ATP, read-out: CDK2/ CyclinE1 IC50
Method in brief: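 ADP-Glo luminescence read-out of ADP formed by 0.328 nM wild-type full-length CDK2/Cyclin E1, 90 min at room temperature with 0.75 uM substrate and 20 uM ATP (Km 64.78 uM), after 30 min enzyme–inhibitor pre-incubation; 50 mM HEPES pH 7.5, 2% DMSO. Four-parameter IC50 fit.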

CDK4/Cyclin D1 = CDK4/Cyclin D1 (Homo sapiens (Human), UniProt P11802); assay: CDK4/Cyclin D1 CHEF Assay (AQT0258 peptide); format: biochemical; settings: 200 uM ATP, read-out: CDK4/ CyclinD1 AQT IC50
Method in brief: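 CDK4/Cyclin D1 (2.5 nM) phosphorylating 10 uM Sox-labelled peptide AQT0258 with 200 uM ATP (Km 195.2 uM), 10 mM MgCl2, 2% DMSO, 54 mM HEPES pH 7.5. Enzyme and inhibitor pre-incubated 30 min, reaction 3 hrs at 22° C.; CHEF fluorescence (ex 360/em 485 nm), IC50 from fractional velocity, 4-parameter fit.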

CDK6/Cyclin D3 = CDK6/Cyclin D3 (Homo sapiens (Human), UniProt Q00534); assay: CDK6/Cyclin D3 ADP-Glo Kinase Assay; format: biochemical; settings: 100 uM ATP, read-out: CDK6/ CyclinD3 IC50
Method in brief: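 Luminescent ADP-Glo read-out of ADP produced, used to fit IC50 (4-parameter equation on fractional velocity against inhibitor concentration). Kinase reaction: enzyme and inhibitor together 30 min, then ATP-containing substrate added for 90 min, all at room temperature.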

MCF-7 cells = assay: Cell Growth Inhibition, MCF-7 (CellTiterGlo, 6 days); format: cell-based; settings: Homo sapiens, MCF7, 144 h; MCF-7, 6-day treatment, CellTiterGlo 2.0
Method in brief: (§1)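 Compounds were run in half-log series, usually 10–10,000 nM, with 500 cells/well of OVCAR-3 or MCF-7 in RPMI plus 10% FBS. After a 6-day culture at 37 °C, viability was read by CellTiterGlo luminescence. Inhibition relative to control was fitted (four-parameter, variable slope) for IC50.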

OVCAR-3 cells = assay: Cell Growth Inhibition, OVCAR-3 (CellTiterGlo, 6 days); format: cell-based; settings: Homo sapiens, 144 h; OVCAR-3, 6-day treatment, CellTiterGlo 2.0
Method in brief: as §1

Chain of CDK4/Cyclin D1 (P11802 whole entry): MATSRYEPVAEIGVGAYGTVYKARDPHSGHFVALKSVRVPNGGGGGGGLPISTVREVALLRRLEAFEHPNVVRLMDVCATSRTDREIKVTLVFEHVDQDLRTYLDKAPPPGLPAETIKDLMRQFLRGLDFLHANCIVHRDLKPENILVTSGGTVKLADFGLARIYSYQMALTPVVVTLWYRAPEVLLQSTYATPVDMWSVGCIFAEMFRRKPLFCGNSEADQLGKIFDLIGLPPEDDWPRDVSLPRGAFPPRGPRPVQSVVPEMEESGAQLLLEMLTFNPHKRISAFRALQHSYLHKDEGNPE
Chain of CDK4/Cyclin D1 (P24385 whole entry partner): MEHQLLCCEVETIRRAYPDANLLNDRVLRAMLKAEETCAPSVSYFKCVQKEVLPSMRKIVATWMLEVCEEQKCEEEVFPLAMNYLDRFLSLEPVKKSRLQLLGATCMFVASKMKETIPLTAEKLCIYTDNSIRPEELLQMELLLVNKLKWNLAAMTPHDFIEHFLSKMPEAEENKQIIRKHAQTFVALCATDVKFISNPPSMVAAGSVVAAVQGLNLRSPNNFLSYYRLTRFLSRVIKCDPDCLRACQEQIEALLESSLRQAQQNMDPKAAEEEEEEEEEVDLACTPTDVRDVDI
Chain of CDK6/Cyclin D3 (Q00534 whole entry): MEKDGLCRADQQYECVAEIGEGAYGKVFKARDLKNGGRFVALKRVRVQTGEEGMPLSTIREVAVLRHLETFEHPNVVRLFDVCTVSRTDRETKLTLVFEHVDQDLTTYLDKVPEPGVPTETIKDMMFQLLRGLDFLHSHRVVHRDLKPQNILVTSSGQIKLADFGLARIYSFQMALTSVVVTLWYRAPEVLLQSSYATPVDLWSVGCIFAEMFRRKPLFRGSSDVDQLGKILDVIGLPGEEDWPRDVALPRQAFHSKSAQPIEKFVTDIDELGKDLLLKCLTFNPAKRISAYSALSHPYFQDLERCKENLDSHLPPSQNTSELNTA
Chain of CDK6/Cyclin D3 (P30281 whole entry partner): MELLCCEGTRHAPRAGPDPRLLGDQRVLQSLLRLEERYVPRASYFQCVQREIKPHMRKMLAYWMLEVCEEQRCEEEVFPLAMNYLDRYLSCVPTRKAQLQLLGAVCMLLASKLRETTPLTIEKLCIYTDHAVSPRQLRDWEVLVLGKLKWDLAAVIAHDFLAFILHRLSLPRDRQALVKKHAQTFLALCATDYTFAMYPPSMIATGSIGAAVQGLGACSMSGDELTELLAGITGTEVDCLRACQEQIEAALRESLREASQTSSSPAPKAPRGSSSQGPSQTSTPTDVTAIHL
Chain of CDK1/Cyclin B1 (P06493 whole entry): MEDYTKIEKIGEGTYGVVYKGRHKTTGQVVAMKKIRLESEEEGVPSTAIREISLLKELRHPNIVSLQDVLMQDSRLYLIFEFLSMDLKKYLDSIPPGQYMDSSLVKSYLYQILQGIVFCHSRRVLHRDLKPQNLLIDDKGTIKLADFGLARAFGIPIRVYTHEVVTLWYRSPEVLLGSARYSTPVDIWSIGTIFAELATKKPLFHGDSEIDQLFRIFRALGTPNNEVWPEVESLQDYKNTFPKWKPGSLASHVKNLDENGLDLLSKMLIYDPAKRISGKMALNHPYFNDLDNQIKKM
Chain of CDK1/Cyclin B1 (P14635 whole entry partner): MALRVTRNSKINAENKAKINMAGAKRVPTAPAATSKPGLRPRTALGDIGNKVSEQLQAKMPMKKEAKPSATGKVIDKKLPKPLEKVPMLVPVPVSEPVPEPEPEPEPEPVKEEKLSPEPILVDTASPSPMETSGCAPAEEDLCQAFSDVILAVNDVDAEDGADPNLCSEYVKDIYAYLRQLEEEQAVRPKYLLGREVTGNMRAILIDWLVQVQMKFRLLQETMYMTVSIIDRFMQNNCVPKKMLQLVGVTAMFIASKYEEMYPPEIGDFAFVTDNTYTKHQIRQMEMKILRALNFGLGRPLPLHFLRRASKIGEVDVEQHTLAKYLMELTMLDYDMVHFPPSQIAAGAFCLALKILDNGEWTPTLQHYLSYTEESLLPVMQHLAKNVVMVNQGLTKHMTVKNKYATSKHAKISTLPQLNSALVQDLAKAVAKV

Row | IC50 (CDK1/Cyclin B1) [nM] | IC50 [1] [nM] | IC50 (CDK4/Cyclin D1) [nM] | IC50 (CDK6/Cyclin D3) [nM] | IC50 (MCF-7 cells) [nM] | IC50 (OVCAR-3 cells) [nM] | Compound
1 | < 200 | < 200 | < 200 | < 200 | 200 to 500 | 500 to 2000 | CN1CC2(CCN(c3cc(C(F)F)cc4cnc(NC5CCN(S(=O)(=O)C6CC6)CC5)nc34)C2)C1 [Example 77, N-(1-(cyclopropylsulfonyl)piperidin-4-yl)-6-(difluoromethyl)-8-(2-methyl-2,6-diazaspiro[3.4]octan-6-yl)quinazolin-2-amine]
2 | 200 to 500 | < 200 | < 200 | < 200 | 500 to 2000 | > 2000 | O=S(=O)(C1CC1)N1CCC(Nc2ncc3cc(C(F)F)cc(N4CC5(C4)CN(C4CC4)C5)c3n2)CC1 [Example 78, 8-(6-cyclopropyl-2,6-diazaspiro[3.3]heptan-2-yl)-N-(1-(cyclopropylsulfonyl)piperidin-4-yl)-6-(difluoromethyl)quinazolin-2-amine]
3 | > 2000 | 200 to 500 | < 200 | < 200 | 500 to 2000 | 500 to 2000 | CN1CCc2cc(Nc3ncc4cc(C(F)F)cc(N5CC6(C5)CN(C5CC5)C6)c4n3)ccc2C1 [Example 79, 8-(6-cyclopropyl-2,6-diazaspiro[3.3]heptan-2-yl)-6-(difluoromethyl)-N-(2-methyl-1,2,3,4-tetrahydroisoquinolin-6-yl)quinazolin-2-amine]
4 | < 200 | < 200 | < 200 | < 200 | 200 to 500 | 200 to 500 | O=S(=O)(C1CC1)N1CCC(Nc2ncc3cc(C(F)F)cc(N4CC5(CCCNC5)C4)c3n2)CC1 [Example 80, N-(1-(cyclopropylsulfonyl)piperidin-4-yl)-6-(difluoromethyl)-8-(2,6-diazaspiro[3.5]nonan-2-yl)quinazolin-2-amine]
5 | 200 to 500 | < 200 | < 200 | < 200 | 500 to 2000 | 500 to 2000 | CN1CCC2(C1)CN(c1cc(C(F)F)cc3cnc(NC4CCN(S(=O)(=O)C5CC5)CC4)nc13)C2 [Example 81, N-(1-(cyclopropylsulfonyl)piperidin-4-yl)-6-(difluoromethyl)-8-(6-methyl-2,6-diazaspiro[3.4]octan-2-yl)quinazolin-2-amine]
6 | 500 to 2000 | < 200 | < 200 | < 200 | 500 to 2000 | > 2000 | FC(F)c1cc(N2CC3(CCNC3)C2)c2nc(Nc3ccc4c(c3)CN(C3CC3)C4)ncc2c1 [Example 82, N-(2-cyclopropylisoindolin-5-yl)-6-(difluoromethyl)-8-(2,6-diazaspiro[3.4]octan-2-yl)quinazolin-2-amine]
7 | 200 to 500 | < 200 | < 200 | < 200 | 500 to 2000 | 500 to 2000 | CN1CC2(CCN(c3cc(C(F)F)cc4cnc(NC5CCN(S(=O)(=O)C6(C)CC6)CC5)nc34)C2)C1 [Example 83, 6-(difluoromethyl)-8-(2-methyl-2,6-diazaspiro[3.4]octan-6-yl)-N-(1-((1-methylcyclopropyl)sulfonyl)piperidin-4-yl)quinazolin-2-amine]
8 | 200 to 500 | < 200 | < 200 | < 200 | 500 to 2000 | 500 to 2000 | O=S(=O)(CC1CCC1)N1CCC(Nc2ncc3cc(C(F)F)cc(N4CCC5(CNC5)C4)c3n2)CC1 [Example 84, N-(1-((cyclobutylmethyl)sulfonyl)piperidin-4-yl)-6-(difluoromethyl)-8-(2,6-diazaspiro[3.4]octan-6-yl)quinazolin-2-amine]
9 | < 200 | < 200 | < 200 | < 200 | 200 to 500 | 200 to 500 | O=S(=O)(CC1CC1)N1CCC(Nc2ncc3cc(C(F)F)cc(N4CC5(CCNC5)C4)c3n2)CC1 [Example 85, N-(1-((cyclopropylmethyl)sulfonyl)piperidin-4-yl)-6-(difluoromethyl)-8-(2,6-diazaspiro[3.4]octan-2-yl)quinazolin-2-amine]
10 | < 200 | < 200 | < 200 | < 200 | 500 to 2000 | 500 to 2000 | O=S(=O)(CC1CCC1)N1CCC(Nc2ncc3cc(C(F)F)cc(N4CC5(CCNC5)C4)c3n2)CC1 [Example 86, N-(1-((cyclobutylmethyl)sulfonyl)piperidin-4-yl)-6-(difluoromethyl)-8-(2,6-diazaspiro[3.4]octan-2-yl)quinazolin-2-amine]
11 | < 200 | < 200 | < 200 | < 200 | 500 to 2000 | 200 to 500 | CC1(S(=O)(=O)N2CCC(Nc3ncc4cc(C(F)F)cc(N5CC6(CCNC6)C5)c4n3)CC2)CC1 [Example 87, 6-(difluoromethyl)-N-(1-((1-methylcyclopropyl)sulfonyl)piperidin-4-yl)-8-(2,6-diazaspiro[3.4]octan-2-yl)quinazolin-2-amine]
12 | < 200 | < 200 | < 200 | < 200 | 200 to 500 | 200 to 500 | O=S(=O)(N1CCC(Nc2ncc3cc(C(F)F)cc(N4CCC5(CNC5)C4)c3n2)CC1)C1(C(F)F)CC1 [Example 88, 6-(difluoromethyl)-N-(1-((1-(difluoromethyl)cyclopropyl)sulfonyl)piperidin-4-yl)-8-(2,6-diazaspiro[3.4]octan-6-yl)quinazolin-2-amine]
13 | < 200 | < 200 | < 200 | < 200 | 200 to 500 | < 200 | COCCN1CC2(CC(c3cc(C(F)F)cc4cnc(NC5CCN(S(C)(=O)=O)CC5)nc34)C2)C1 [Example 89, 6-(difluoromethyl)-8-(2-(2-methoxyethyl)-2-azaspiro[3.3]heptan-6-yl)-N-(1-(methylsulfonyl)piperidin-4-yl)quinazolin-2-amine]
14 | < 200 | < 200 | < 200 | < 200 | 200 to 500 | < 200 | O=S(=O)(N1CCC(Nc2ncc3cc(C(F)F)cc(C4CC5(CCNC5)C4)c3n2)CC1)C1(C(F)F)CC1 (stereo not drawn) [Example 91, 6-(difluoromethyl)-N-(1-((1-(difluoromethyl)cyclopropyl)sulfonyl)piperidin-4-yl)-8-(6-azaspiro[3.4]octan-2-yl)quinazolin-2-amine]
15 | < 200 | < 200 | < 200 | < 200 | 500 to 2000 | 500 to 2000 | CS(=O)(=O)N1CCC(Nc2ncc3cc(C(F)F)cc(N4CC(F)(F)C5(CNC5)C4)c3n2)CC1 [Example 92, 8-(8,8-difluoro-2,6-diazaspiro[3.4]octan-6-yl)-6-(difluoromethyl)-N-(1-(methylsulfonyl)piperidin-4-yl)quinazolin-2-amine]
16 | < 200 | < 200 | < 200 | < 200 | 200 to 500 | < 200 | O=S(=O)(N1CCC(Nc2ncc3cc(C(F)F)cc(N4CC5(CCNC5)C4)c3n2)CC1)C1(C(F)F)CC1 [Example 93, 6-(difluoromethyl)-N-(1-((1-(difluoromethyl)cyclopropyl)sulfonyl)piperidin-4-yl)-8-(2,6-diazaspiro[3.4]octan-2-yl)quinazolin-2-amine]
17 | < 200 | < 200 | < 200 | < 200 | 500 to 2000 | 500 to 2000 | CS(=O)(=O)N1CCC(Nc2ncc3cc(C(F)F)cc(N4CC5(CCNCC5(F)F)C4)c3n2)CC1 [Example 94, 8-(5,5-difluoro-2,7-diazaspiro[3.5]nonan-2-yl)-6-(difluoromethyl)-N-(1-(methylsulfonyl)piperidin-4-yl)quinazolin-2-amine]

Row | Compound | IC50 (CDK1/Cyclin B1) [nM] | IC50 [1] [nM] | IC50 (CDK4/Cyclin D1) [nM] | IC50 (CDK6/Cyclin D3) [nM] | IC50 (MCF-7 cells) [nM] | IC50 (OVCAR-3 cells) [nM]
18 | O=S(=O)(C1CC1)N1CCC(Nc2ncc3cc(C(F)F)cc(C4CC5(C4)CN(CC(F)F)C5)c3n2)CC1 [Example 90, N-(1-(cyclopropylsulfonyl)piperidin-4-yl)-8-(2-(2,2-difluoroethyl)-2-azaspiro[3.3]heptan-6-yl)-6-(difluoromethyl)quinazolin-2-amine] | < 200 | < 200 | < 200 | < 200 | 500 to 2000 | 200 to 500
